# Data: PubChem BioAssay (NCI)
#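 Values below derive from 48-hour exposures of cells grown in 96-well plates, with endpoints linearly interpolated between the two concentrations bracketing the appropriate inhibition level. TGI marks complete inhibition of growth.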 *1 amine or outer side, *2 acyl side, *3 side chain or, on linkers, in order; H or OH if unused. Where a SMILES comes first, the peptide text is derived from it. Bridges are numbered along the chain shown (N, C = ends). [ ]: non-standard residue; d: D form. The star is where a group is joined. ξ: configuration not given here. X34 = O=C(C(CCCCNO[*:3])N[*:1])[*:2]; Fmoc = O=C(OCC1c2ccccc2-c2ccccc21)*; ξW = NC(Cc1c[nH]c2ccccc12)C(=O)O; ξP = O=C(O)C1CCCN1
# Experiments:
# Assay in all cases: NCI anticancer screen, dose series, 48 h
# [1] = tested on: HL-60(TB) leukemia
# [2] = tested on: A498 renal
# [3] = tested on: MALME-3M melanoma
# [4] = tested on: NCI-H460 lung
# [5] = tested on: OVCAR-4 ovarian
# [6] = tested on: LOX IMVI melanoma
# [7] = tested on: SNB-19 CNS
# [8] = tested on: HCT-15 colon
# [9] = tested on: EKVX NSCLC
# [10] = tested on: NCI-H522 lung
# [11] = tested on: T-47D breast
# [12] = tested on: SK-MEL-28 melanoma
# [13] = tested on: MCF7 breast
compound,measurement,setting,value
c1ccc(C2C3=C(Nc4ncnn42)c2ccccc2C3)cc1 (centres undefined),TGI,[1],> 100 µM
same,TGI,[2],> 100 µM
same,TGI,[3],> 100 µM
same,TGI,[4],> 100 µM
same,TGI,[5],> 100 µM
same,TGI,[6],73.2 µM
same,TGI,[7],> 100 µM
same,TGI,[8],> 100 µM
same,TGI,[9],> 100 µM
same,TGI,[10],26.5 µM
COc1cc(-c2cc(=O)c3cc4c(cc3[nH]2)OCO4)cc(OC)c1O,TGI,[1],> 10 µM
same,TGI,[11],> 10 µM
same,TGI,[12],> 10 µM
same,TGI,[13],> 10 µM
same,TGI,[4],> 10 µM
same,TGI,[5],> 10 µM
same,TGI,[6],> 10 µM
same,TGI,[7],> 10 µM
same,TGI,[8],> 10 µM
same,TGI,[9],> 10 µM
same,TGI,[10],> 10 µM
NC(C(F)(F)F)(C(F)(F)F)P(=O)(Cc1ccccc1)Cc1ccccc1,TGI,[1],> 100 µM
same,TGI,[11],> 100 µM
same,TGI,[12],> 100 µM
same,TGI,[13],> 100 µM
same,TGI,[3],> 100 µM
same,TGI,[4],> 100 µM
same,TGI,[5],> 100 µM
same,TGI,[6],> 100 µM
same,TGI,[7],> 100 µM
same,TGI,[8],> 100 µM
same,TGI,[9],> 100 µM
CCCc1cc(=O)c2c(C)c3[nH]c4ccc(Cl)cc4c3c(C)c2[nH]1,TGI,[11],3.88 µM
same,TGI,[12],3.14 µM
same,TGI,[13],3.37 µM
same,TGI,[2],2.92 µM
same,TGI,[3],23 µM
same,TGI,[4],3.79 µM
same,TGI,[5],3.43 µM
same,TGI,[6],3.33 µM
same,TGI,[7],8.9 µM
same,TGI,[8],3.37 µM
same,TGI,[9],7.72 µM
same,TGI,[10],4.51 µM
COc1ccc(-c2cc(-c3ccco3)c(C#N)c(=S)n2C2OC(COC(C)=O)C(OC(C)=O)C(OC(C)=O)C2OC(C)=O)cc1 (centres undefined),TGI,[1],20.7 µM
same,TGI,[11],21.7 µM
same,TGI,[12],12.7 µM
same,TGI,[13],> 100 µM
same,TGI,[3],16.9 µM
same,TGI,[4],52 µM
same,TGI,[5],10 µM
same,TGI,[6],15.1 µM
same,TGI,[7],19.1 µM
same,TGI,[8],> 100 µM
same,TGI,[9],32.2 µM
same,TGI,[10],18 µM
O=C(NNC(=S)Nc1ccc(Cl)cc1)c1cc(-c2ccccc2)nc2ccccc12,TGI,[11],11.6 µM
same,TGI,[12],14.1 µM
same,TGI,[13],17.3 µM
same,TGI,[3],17.5 µM
same,TGI,[4],25.6 µM
same,TGI,[5],24.3 µM
same,TGI,[7],21.7 µM
same,TGI,[8],14.9 µM
same,TGI,[10],23.2 µM
COc1cc2c(cc1OC)C1=Cc3cc(OC)c(OC)cc3C(C)N1C=C2 (centres undefined),TGI,[1],> 100 µM
same,TGI,[11],> 100 µM
same,TGI,[12],> 100 µM
same,TGI,[13],> 100 µM
same,TGI,[2],> 100 µM
same,TGI,[3],> 100 µM
same,TGI,[4],> 100 µM
same,TGI,[7],> 100 µM
same,TGI,[8],> 100 µM
same,TGI,[9],> 100 µM
CCOC(=O)C1Cc2[nH]c3ccccc3c2C(C)C1C (centres undefined),TGI,[12],33.7 µM
same,TGI,[2],34.4 µM
same,TGI,[3],33.2 µM
same,TGI,[4],33.2 µM
same,TGI,[5],30.9 µM
same,TGI,[6],28.2 µM
same,TGI,[7],34.5 µM
same,TGI,[8],32.1 µM
same,TGI,[9],31.2 µM
same,TGI,[10],26.6 µM
Cc1ccc(-c2c(C#N)c(-c3ccccc3)n(NS(=O)(=O)c3ccccc3)c(=O)c2C#N)cc1,TGI,[12],> 100 µM
same,TGI,[13],> 100 µM
same,TGI,[2],> 100 µM
same,TGI,[3],> 100 µM
same,TGI,[4],> 100 µM
same,TGI,[5],> 100 µM
same,TGI,[6],> 100 µM
same,TGI,[7],> 100 µM
same,TGI,[8],> 100 µM
same,TGI,[9],> 100 µM
same,TGI,[10],> 100 µM
c1ccc2c(c1)OC(N1CCCC1)c1cnc(N3CCCC3)nc1-2 (centres undefined),TGI,[1],66.5 µM
same,TGI,[11],93.3 µM
same,TGI,[12],> 100 µM
same,TGI,[13],52.9 µM
same,TGI,[2],76 µM
same,TGI,[3],> 100 µM
same,TGI,[4],> 100 µM
same,TGI,[5],> 100 µM
same,TGI,[6],> 100 µM
same,TGI,[7],> 100 µM
same,TGI,[8],> 100 µM
same,TGI,[9],58.5 µM
OCc1ccc2[n+](c1)CCC1c3ccccc3NC21 (centres undefined),TGI,[1],> 300 µM
same,TGI,[12],> 300 µM
same,TGI,[3],> 300 µM
same,TGI,[4],> 300 µM
same,TGI,[6],> 300 µM
same,TGI,[7],> 300 µM
same,TGI,[8],> 300 µM
same,TGI,[9],> 300 µM
same,TGI,[10],> 300 µM
CC[C@]1(Cc2ccc(OC)c(OC)c2)CN(S(=O)(=O)c2ccc(C)cc2)C[C@@H]1OC(C)=O,TGI,[1],> 100 µM
same,TGI,[11],> 100 µM
same,TGI,[12],> 100 µM
same,TGI,[13],> 100 µM
same,TGI,[2],> 100 µM
same,TGI,[3],> 100 µM
same,TGI,[4],> 100 µM
same,TGI,[5],> 100 µM
same,TGI,[6],> 100 µM
same,TGI,[7],> 100 µM
same,TGI,[8],> 100 µM
same,TGI,[9],> 100 µM
COC(=O)CC(C(C(=O)OC)C(=O)OC)N1C(=O)OCC1c1ccccc1 (centres undefined),TGI,[1],> 100 µM
same,TGI,[12],> 100 µM
same,TGI,[2],> 100 µM
same,TGI,[3],> 100 µM
same,TGI,[4],> 100 µM
same,TGI,[5],> 100 µM
same,TGI,[6],> 100 µM
same,TGI,[7],> 100 µM
same,TGI,[8],> 100 µM
same,TGI,[9],> 100 µM
same,TGI,[10],> 100 µM
NC(=O)CNC(=O)C1CCCN1C(=O)C1CCCCNOC(=O)CC[C@@H](NC(=O)OCC2c3ccccc3-c3ccccc32)C(=O)NC(Cc2c[nH]c3ccccc23)C(=O)N1 (some centres undefined) (Fmoc-[dE][ξW][X34][ξP]G-NH2; ester 1-3),TGI,[1],> 100 µM
same,TGI,[11],> 100 µM
same,TGI,[12],> 100 µM
same,TGI,[13],> 100 µM
same,TGI,[3],> 100 µM
same,TGI,[4],> 100 µM
same,TGI,[5],> 100 µM
same,TGI,[6],> 100 µM
same,TGI,[7],> 100 µM
same,TGI,[8],> 100 µM
same,TGI,[9],> 100 µM
same,TGI,[10],> 100 µM
Cc1nnc(Nc2ccccc2)o1,TGI,[1],> 100 µM
same,TGI,[11],> 100 µM
same,TGI,[12],> 100 µM
same,TGI,[13],> 100 µM
same,TGI,[3],> 100 µM
same,TGI,[5],> 100 µM
same,TGI,[6],> 100 µM
same,TGI,[7],> 100 µM
same,TGI,[8],> 100 µM
same,TGI,[9],> 100 µM
same,TGI,[10],> 100 µM
COC(=O)C(/C(=N/NC(N)=O)C(=O)Nc1ccc(C)cc1)c1nc2ccc([N+](=O)[O-])cc2[nH]c1=O (centres undefined),TGI,[11],> 100 µM
same,TGI,[12],> 100 µM
same,TGI,[13],> 100 µM
same,TGI,[2],> 100 µM
same,TGI,[3],> 100 µM
same,TGI,[4],> 100 µM
same,TGI,[5],> 100 µM
same,TGI,[6],> 100 µM
same,TGI,[8],> 100 µM
same,TGI,[9],> 100 µM
same,TGI,[10],> 100 µM
Cn1cc2ccccc2c1-c1nc(N)nc(F)n1,TGI,[1],> 100 µM
same,TGI,[12],> 100 µM
same,TGI,[2],53.5 µM
same,TGI,[3],> 100 µM
same,TGI,[4],> 100 µM
same,TGI,[5],> 100 µM
same,TGI,[6],> 100 µM
same,TGI,[7],> 100 µM
same,TGI,[8],> 100 µM
same,TGI,[9],> 100 µM
same,TGI,[10],> 100 µM
CC1(C)OCC(COC(=O)C=[N+]=[N-])O1 (centres undefined),TGI,[1],> 100 µM
same,TGI,[12],> 100 µM
same,TGI,[13],> 100 µM
same,TGI,[2],> 100 µM
same,TGI,[3],> 100 µM
same,TGI,[4],> 100 µM
same,TGI,[5],> 100 µM
same,TGI,[6],> 100 µM
same,TGI,[7],> 100 µM
same,TGI,[8],> 100 µM
same,TGI,[9],> 100 µM
same,TGI,[10],> 100 µM
CC(C)(C)c1ccc2c(c1)CNCCNCc1cc(C(C)(C)C)ccc1OCC1(CO2)COc2ccc(C(C)(C)C)cc2CNCCNCc2cc(C(C)(C)C)ccc2OC1,TGI,[1],0.475 µM
same,TGI,[11],3.73 µM
same,TGI,[12],3.05 µM
same,TGI,[2],2.83 µM
same,TGI,[3],2.8 µM
same,TGI,[4],0.609 µM
same,TGI,[5],2.93 µM
same,TGI,[6],> 100 µM
same,TGI,[7],2 µM
same,TGI,[8],2.17 µM
same,TGI,[9],2.42 µM
same,TGI,[10],0.421 µM
